Laboratory results published in publication PMC6381024, “Probing Anti-inflammatory Properties Independent of NF-κB Through Conformational Constraint of Peptide-Based Interleukin-1 Receptor Biased Ligands” (Frontiers in Chemistry, 2019).
Entries after “also recorded” stand apart in the source; their conditions may differ.

Legend:
[1] = tested on: pregnant CD-1 mice; experiment: LPS-induced preterm birth (PTB) model in mice; format: in vivo, mouse; parameters: key to In vivo PTB (heatmap grade of efficacy): 0: No effect; No effect 01234 Maximum inhibition/efficacy; No effect 01234 Maximum inhibition/efficacy; No effect 01234 Maximum inhibition/efficacy; 4: Maximum inhibition/efficacy; conditions: for In vivo PTB (heatmap grade of efficacy): LPS 10 μg i.p. at G16.5, peptide 2 mg/kg/day s.c. every 12 h; for Activity in delaying labor in the PTB model: LPS i.p. at G16.5, 2 mg/kg/day s.c.
Protocol: Timed-pregnant CD-1 mice at 16.5 days of gestation (G16.5) were anesthetized with 2% isoflurane and received an intraperitoneal injection of LPS (n = 4 per group, a single dose of 10 μg) (Nadeau-Vallée et al., [2015], and Kakinuma et al., [1997]). A dosage of 2 mg/kg/day of peptide 1, 5, or 6 or vehicle was injected subcutaneously in the neck, every 12 h until delivery. On G16.5, a dose of 1 mg/kg was injected 30 min before stimulation with LPS (to allow distribution of drugs to target tissues) and 1 mg/kg was injected 12 h after stimulation (n = 4 each treatment). Mice delivery was assessed every hour until term (G19–G19.5). A mouse is considered as delivering prematurely if the first pup is delivered earlier than G18.5.
Figure 9 The effects of peptides 1, 5, and 6 on prevention of PTB. (A) Schematic of the CD-1 mouse PTB model. In brief, pregnant dams on day 16.5 of gestation (G16.5) were subcutaneously pretreated with peptides 1, 5, and 6 or vehicle, followed by LPS, and observed for delivery of pups. A dam was considered as delivering preterm if at least one pup was delivered before G18.5. (B) The rates of PTB in dams treated with peptides 1, 5, and 6 are grouped into (3R)- (left) and (3S)- (right) derivatives; n = 4–5 dams per treatment group.

[2] = tested on: Sprague Dawley rat pups; experiment: Oxygen-induced retinopathy (OIR), retinal vaso-obliteration in rat pups; format: in vivo; parameters: key to In vivo OIR (heatmap grade of efficacy): 0: No effect; No effect 01234 Maximum inhibition/efficacy; No effect 01234 Maximum inhibition/efficacy; No effect 01234 Maximum inhibition/efficacy; 4: Maximum inhibition/efficacy; conditions: for In vivo OIR (heatmap grade of efficacy): Sprague Dawley rat pups, 80% O2 P5-P10, Kineret 3 mg/kg/day (legend: 15 mg/kg/day), twice-daily i.p.; for In vivo OIR (heatmap grade of efficacy) / Extent of vaso-obliteration (area as percentage of total retinal area) after treatment: peptides 2 mg/kg/day; for Extent of vaso-obliteration (area as percentage of total retinal area) after treatment / Efficacy against vaso-obliteration in the OIR model: rat pups, 80% oxygen days 5 to 10; for Extent of vaso-obliteration (area as percentage of total retinal area) after treatment: Kineret 3 mg/kg/day (legend: 15 mg/kg/day) i.p., untreated ~35%; for Efficacy against vaso-obliteration in the OIR model: 2 mg/kg/day i.p.
Description: On P5, litters were transferred to a controlled hyperoxic environment (Biospherix OxyCycler A84XOV) and maintained at 80 ± 1% O2, which is used to induce vaso-obliteration of the retinal vasculature. At this timepoint, the vasculature is immature and particularly susceptible to […] insults resulting in vaso-obliteration, a defining characteristic of the early stage of retinopathies in premature infants (Garner and Ashton, [1971]). Control litters were not exposed to hyperoxia and were kept in standard conditions with room air (21% O2). To control for the effects of hyperoxia on the lactation of the dams, dams of hyperoxic litters were switched with dams of control litters on P8.
In litters exposed to hyperoxia, pups were randomized to receive phosphate-buffered saline (PBS) vehicle, 2 mg/kg/day of peptides 1, 5, or 6 or 3 mg/kg/day of Kineret from P5 to P10. These doses were determined from our previous study (Rivera et al., [2013]) and administered in twice-daily intra-peritoneal injections titrated to 20 μL per injection with 28-gauge insulin syringes. A total of 6–8 pups were used for each treatment group.
On P10, pups were euthanized by decapitation under 2% isoflurane anesthesia. Eyes were enucleated and fixed in 4% paraformaldehyde for 1 h at room temperature before washing twice with PBS and storage at 4°C in PBS until further processing.
Under a dissecting microscope, the cornea and lens were gently removed from the eyes and remnants of the hyaloid vasculature were removed from the retinas using surgical scissors and tweezers. The retinas were gently removed from the underlying sclera/choroid complex.
Retinas were treated at room temperature for 1 h with a blocking solution consisting of 1% bovine serum albumin (BSA), 1% normal goat serum, 0.1% Triton X-100 and 0.05% Tween-20 in PBS. The retinas were then double-labeled overnight at 4°C with gentle shaking in an antibody solution consisting of 1 mM CaCl2, 1% Triton X-100, 1% TRITC-conjugated lectin cell endothelial marker from Bandeiraea simplicifolia (Sigma-Aldrich, St Louis, MO) and a 1:500 dilution of rabbit anti-ionized calcium-binding adapter molecule (Iba)-1 antibody (Wako Chemicals USA) in PBS. The retinas were then washed thrice with PBS and incubated with a secondary antibody solution consisting of 1% BSA, 0.1% Triton X-100, 0.05% Tween-20 and 1:500 Alexa-594-conjugated donkey anti-rabbit IgG (ThermoFisher Scientific, Rockford, IL) in PBS for 2 h at room temperature. Retinas were washed thrice with PBS and then flat-mounted onto glass slides with coverslips and Fluoro-Gel mounting medium (Electron Microscopy Sciences, Hatfield, PA).
For assessment of vaso-obliteration, retinas were imaged using an epifluorescence microscope at 10X magnification (Zeiss AxioImager Z2) and version 4.8 of the AxioVision software. Images were captured and stitched together using the software's MosaiX feature. Iba-1 staining was assessed with the same microscope at 20X magnification, and a total of 4 fields per retina were imaged halfway between the optic nerve and the edge of the retina.
The FIJI software was used to the quantify the area of vaso-obliteration in each retina, expressed as a percentage of the area of the whole retina. The number of Iba-1-positive cells was counted using the cell counter plug-in in FIJI, and the average of cell counts in 4 fields per retina was calculated.
Figure 10 The preventive effects of peptides 1, 5, and 6 against vaso-obliteration in an OIR model. Five-days old Sprague Dawley pups and their mothers were kept in 80% oxygen until the 10 day of life, receiving twice-daily intraperitoneal injections of peptides 1, 5, and 6 (2 mg/kg/day), Kineret (15 mg/kg/day) or PBS vehicle (each injection was titrated to a volume of 20 μL). (A) Representative retinal flatmounts stained with FITC-conjugated Bandeiraea simplicifolia lectin, taken at 10X magnification and stitched with MosaiX in Axiovision 4.8. […]

[3] = tested on: IL-1R; experiment: Radioligand displacement of [125I]-peptide 1 in RAW-Blue macrophage cells; format: binding; conditions: for Percentage of displacement of [125I]-1, relative to unlabeled peptide 1, ±SEM: 100 μM cold peptide pre-incubated 20 min, then 600 nM [125I]-peptide 1 for 2 h at 37°C, gamma counter, mean ± SEM, three independent experiments
Protocol: Displacement of radiolabeled peptide 1 was performed as described previously (Quiniou et al., [2008]). Briefly, RAW-Blue macrophage cells (InVivogen; San Diego, CA) were pre-incubated for 20 min with 100 μM of non-radiolabeled (“cold”) peptide 1, 5, or 6 followed by incubation for 2 h at 37°C with [^125I]-peptide 1 at 600 nM concentration to ensure maximal specific binding (Quiniou et al., [2008]). Cells were washed four times with PBS buffer and lysed with 0.1 N NaOH/0.1% Triton X-100. Bound radioactivity was measured on cell lysates with a Hidex AMG gamma counter (Hidex; Turku Finland). Data are representative of three independent experiments.
Peptide 1 is known to bind to IL-1R (Quiniou et al., [2008]). To determine if the Agl and Hgl derivatives occupied the same binding site as peptide 1, a radio-ligand displacement assay was used to determine the extent to which peptides 5 and 6 displaced radiolabeled 1.

Substance	In vivo PTB (heatmap grade of efficacy) [1]	In vivo OIR (heatmap grade of efficacy) [2]	Extent of vaso-obliteration (area as percentage of total retinal area) after treatment [2]	Activity in delaying labor in the PTB model [1]	Percentage of displacement of [125I]-1, relative to unlabeled peptide 1, ±SEM [3]	Efficacy against vaso-obliteration in the OIR model [2]	Capacity to displace [125I]-1 compared to cold unlabeled peptide 1 ([3]; 100 μM cold peptide, 600 nM [125I]-peptide 1)
Kineret: FDA-approved recombinant IL-1 receptor antagonist	0	3	15–20%				
H-D-Arg-D-Tyr-(S)-Agl-D-Val-D-Glu-D-Leu-D-Ala-NH2 [[(3S)-Agl^3]-1]	4	1		high potency; also recorded: best activity	106.6 ± 12.39%	inactivity	
H-D-Arg-D-Tyr-(3R,4R)-Hgl-D-Val-D-Glu-D-Leu-D-Ala-NH2 [[(3R,4R)-Hgl^3]-1]	0				104.6 ± 6.826%		
H-D-Arg-D-Tyr-(3R,4R)-Hgl-(S)-Val-D-Glu-D-Leu-D-Ala-NH2 [[(3R,4R)-Hgl^3-(S)-Val^4]-1]	0				82.12 ± 14.12%		
H-D-Arg-D-Tyr-(R)-Agl-D-Val-D-Glu-D-Leu-D-Ala-NH2 [[(3R)-Agl^3]-1]	4	0		high potency; also recorded: best activity	83.55 ± 9.02%	inactivity	
H-D-Arg-D-Tyr-(R)-Agl-(S)-Val-D-Glu-D-Leu-D-Ala-NH2 [[(3R)-Agl^3-(S)-Val^4]-1]	0				120.7 ± 15.69%		
H-D-Arg-D-Tyr-(3S,4R)-Hgl-D-Val-D-Glu-D-Leu-D-Ala-NH2 [[(3S,4R)-Hgl^3]-1]	4	4	15–25%	best activity	78.64 ± 21.22%		
H-D-Arg-D-Tyr-(3R,4S)-Hgl-(S)-Val-D-Glu-D-Leu-D-Ala-NH2 [[(3R,4S)-Hgl^3-(S)-Val^4]-1]	2				58.63 ± 13.45%		
H-D-Arg-D-Tyr-(S)-Agl-(S)-Val-D-Glu-D-Leu-D-Ala-NH2 [[(3S)-Agl^3-(S)-Val^4]-1]	0				102.7 ± 8.637%		
H-D-Arg-D-Tyr-(3R,4S)-Hgl-D-Val-D-Glu-D-Leu-D-Ala-NH2 [[(3R,4S)-Hgl^3]-1]	4	4	15–25%	best activity	32.13 ± 16.94%		significantly lower (p = 0.0011) ability to compete with radiolabeled peptide 1
H-D-Arg-D-Tyr-D-Thr-D-Val-D-Glu-D-Leu-D-Ala-NH2 [Peptide 1]	4	4	15–20%				
